Consider five compounds from patent US7867980B2, “Lincosamide derivatives and antimicrobial agents comprising the same as active ingredient” (Meiji Seika Kaisha, Ltd., priority 2007, dated 2011).

Common to all, as to assay: Antimicrobial activity, minimum growth inhibitory concentration (MIC), agar dilution
Common to all, as to type: cell-based

One experiment has as its system S. pneumoniae 1700. Particulars: Sensitivity disk agar-N+5% horse blood, inoculum about 10^6 CFU/ml. Here is the method:
(§1) For representative compounds among lincomycin derivatives according to the present invention, the minimum growth inhibitory concentration (MIC, μg/ml) against various pneumococci was measured according to the method described in CHEMOTHERAPY, vol. […] Sensitivity disk agar-N+5% horse blood was used as the medium for the measurement. The amount of bacteria inoculated was about 10^6 CFU/ml.

The test system of the next experiment is S. pneumoniae 1820. The following applies: Sensitivity disk agar-N+5% horse blood, inoculum about 10^6 CFU/ml. Here is the method:
as §1

A further experiment has as its system S. pneumoniae 1913. The following applies: Sensitivity disk agar-N+5% horse blood, inoculum about 10^6 CFU/ml. Here is the method:
as §1

The test system of another experiment is S. pneumoniae 225. The following applies: Sensitivity disk agar-N+5% horse blood, inoculum about 10^6 CFU/ml. Here is the method: as §1
In a further experiment the test system is S. pneumoniae DP1 TypeI. The following applies: Sensitivity disk agar-N+5% horse blood, inoculum about 10^6 CFU/ml. Here is the method:
as §1

Another experiment concerns S. pneumoniae IP692. Particulars: Sensitivity disk agar-N+5% horse blood, inoculum about 10^6 CFU/ml. Here is the method: as §1
The test system of a further experiment is S. pneumoniae PRC-206. The following applies: inoculum about 10^6 CFU/ml; for minimum growth inhibitory concentration (MIC): Sensitivity disk agar-N+5% horse blood. Here is the method: as §1
The test system of another experiment is S. pneumoniae PRC-53. Particulars: inoculum about 10^6 CFU/ml; for minimum growth inhibitory concentration (MIC): Sensitivity disk agar-N+5% horse blood. Here is the method:
as §1

The subject of the next experiment is S. pneumoniae TH-662. The following applies: inoculum about 10^6 CFU/ml; for minimum growth inhibitory concentration (MIC): Sensitivity disk agar-N+5% horse blood. Here is the method:
as §1

Converted amounts (≈) assume the structure as drawn. Where only a bound is given, the exact number is not on record here.

As to `CCC[C@@H]1C[C@@H](C(=O)N[C@@H]([C@H]2O[C@H](SC)[C@H](O)[C@@H](O)[C@H]2O)[C@H](C)Sc2ccc(-c3cncnc3)c(F)c2)N(C)C1` [Compound 3, 7-Deoxy-7-epi-7-(3-fluoro-4-(pyrimidin-5-yl)phenylthio)lincomycin], the “minimum growth inhibitory concentration (MIC)” value was 2 µg/mL in the experiment with S. pneumoniae 1700; 2 µg/mL in the experiment with S. pneumoniae 1820; “≦0.008 μg/ml” in the experiment with S. pneumoniae 1913; 8 µg/mL in the experiment on S. pneumoniae 225; 0.015 µg/mL in the experiment with S. pneumoniae DP1 TypeI; 0.03 µg/mL in the experiment on S. pneumoniae IP692. In addition, the “minimum growth inhibitory concentration (MIC)” value was 2 µg/mL with S. pneumoniae PRC-206, “≦0.008 μg/ml” in the experiment on S. pneumoniae PRC-53 and 0.25 µg/mL with S. pneumoniae TH-662.

`CCCC1CC(C(=O)NC(C(C)Sc2ccc(-c3nc(C(=O)N(C)C)cs3)cc2)C2OC(SC)C(O)C(O)C2O)N(C)C1` (stereo not drawn) [Compound 17, 7-Deoxy-7-(4-(4-(dimethylcarbamoyl)-thiazol-2-yl)phenylthio)-7-epilincomycin]: the “minimum growth inhibitory concentration (MIC)” value with S. pneumoniae 1700 worked out at 2 µg/mL; in the experiment on S. pneumoniae 1820, 4 µg/mL; in the experiment on S. pneumoniae 1913, 0.03 µg/mL; with S. pneumoniae 225 it was 32 µg/mL; with S. pneumoniae DP1 TypeI it was 0.03 µg/mL; in the experiment on S. pneumoniae IP692, 0.03 µg/mL. For the same compound, the “minimum growth inhibitory concentration (MIC)” value stood at 4 µg/mL with S. pneumoniae PRC-206, 0.015 µg/mL in the experiment on S. pneumoniae PRC-53 and 2 µg/mL with S. pneumoniae TH-662.

In the case of `CCC[C@@H]1CCN[C@H](C(=O)N[C@@H]([C@H]2O[C@H](SC)[C@H](O)[C@@H](O)[C@H]2O)[C@H](C)Sc2ccc(-c3cncnc3)cc2)C1` [Compound 59, Methyl 7-deoxy-7-epi-6-N-((2S,4R)-4-propyl)pipecoloyl-7-(4-(pyrimidin-5-yl)phenylthio)-1-thio-α-lincosamide], the “minimum growth inhibitory concentration (MIC)” value in the experiment with S. pneumoniae 1700 was 0.13 µg/mL; with S. pneumoniae 1820, 0.25 µg/mL; in the experiment on S. pneumoniae 1913 it was 0.015 µg/mL; in the experiment on S. pneumoniae 225 it was 1 µg/mL; with S. pneumoniae DP1 TypeI, “≦0.008 μg/ml”; with S. pneumoniae IP692, “≦0.008 μg/ml”. Besides, the results for the “minimum growth inhibitory concentration (MIC)” value with S. pneumoniae PRC-206, in the experiment on S. pneumoniae PRC-53 and with S. pneumoniae TH-662 were 0.25 µg/mL, “≦0.008 μg/ml” and 0.13 µg/mL, respectively.

Take `CCC[C@@H]1CCN(C)[C@H](C(=O)N[C@@H](C2OC(SC)C(O)C(O)C2O)[C@H](C)Sc2ccc(-c3cncnc3)cc2)C1` (stereo partly drawn) [Compound 65]: the minimum inhibitory concentration (MIC) against S. pneumoniae 1700 (Streptococcus pneumoniae) is 2 µg/mL (≈ 3.39 µM); in the experiment with S. pneumoniae 1820 (Streptococcus pneumoniae), 2 µg/mL (≈ 3.39 µM); against S. pneumoniae 1913 (Streptococcus pneumoniae) it was 0.015 µg/mL (≈ 0.0254 µM); with S. pneumoniae 225 (Streptococcus pneumoniae), 4 µg/mL (≈ 6.77 µM); against S. pneumoniae DP1 TypeI (Streptococcus pneumoniae, DP1TYPEI), 0.015 µg/mL (≈ 0.0254 µM); in the experiment with S. pneumoniae IP692 (Streptococcus pneumoniae) it was 0.015 µg/mL (≈ 0.0254 µM). The MIC against S. pneumoniae PRC-206 (Streptococcus pneumoniae, PRC206, Sensitivity disk agar-N+5% horse blood) was 2 µg/mL (≈ 3.39 µM); in the experiment on S. pneumoniae PRC-53 (Streptococcus pneumoniae, PRC53, Sensitivity disk agar-N+5% horse blood), at most 0.008 µg/mL; against S. pneumoniae TH-662 (Streptococcus pneumoniae, TH662, Sensitivity disk agar-N+5% horse blood), 0.5 µg/mL (≈ 0.846 µM).

Turning to `CS[C@H]1O[C@H]([C@H](NC(=O)[C@@H]2C[C@H](CC3CC3)CCN2)[C@H](C)Sc2ccc(C3C=CCN(C)C3)nc2)[C@H](O)[C@H](O)[C@H]1O` (stereo partly drawn) [Compound 93, Methyl 6-N-((2S,4R)-4-cyclopropylmethyl)-pipecoloyl-7-deoxy-7-epi-7-(6-(1-methyl-1,2,3,6-tetrahydropyridin-3-yl)pyridin-3-ylthio)-1-thio-α-lincosamide], the “minimum growth inhibitory concentration (MIC)” value in the experiment with S. pneumoniae 1700 worked out at 0.5 µg/mL; with S. pneumoniae 1820 it was 1 µg/mL; in the experiment with S. pneumoniae 1913, 0.13 µg/mL; with S. pneumoniae 225, 1 µg/mL; with S. pneumoniae DP1 TypeI it was 0.06 µg/mL; in the experiment with S. pneumoniae IP692 it was 0.13 µg/mL. Besides, the “minimum growth inhibitory concentration (MIC)” value with S. pneumoniae PRC-206 stood at 1 µg/mL; in the experiment with S. pneumoniae PRC-53, 0.06 µg/mL; in the experiment with S. pneumoniae TH-662, 0.5 µg/mL.
